Results taken from patent US20190290576A1, “ANTI-MALARIAL PHARMACEUTICAL COMPOSITION” (Protopharma Limited, priority 2007, published 2019).

Key:
[1] = Storage stability of artemether in solvent systems, impurities by HPLC; type: physicochemical; settings: in contact with water, ethanol, or propellants
Source text: Tables 1 and 2 show impurities present in Artemether API, and artemether in three solvent systems: 20% ethanol+80% propellant; 50% ethanol+50% propellant; 100% ethanol; and a medium chain triglyceride, in this case, the triglyceride sold under the registered trade mark Miglyol® 810. Miglyol® is a medium chain triglyceride containing saturated C8 and C10 fatty acids, typically between 65-80% of caprylic acid (C8:0) and 20-35% of capric acid (C10:0). The propellant used in these test was 1,1,1,2 tetrafluoroethane, sold under the registered trade mark Zephex® 134a. Similar results were obtained for the propellants butane, Zephex® 227 (1,1,1,2,3,3,3 heptafluoropropane) and for a mixture of butane and propane. […] In all other cases, the impurities are at levels that exceed those permitted under the ICH Harmonised Tripartite Guidelines for Impurities in New Drug Products without specific identification or further toxicological examination.

[2] = animals, oral administration; cited from earlier work

Stability of artemether in contact with solvents [1]: not stable
Structure (SMILES): CO[C@H]1O[C@@H]2O[C@@]3(C)CC[C@H]4[C@H](C)CC[C@@H]([C@H]1C)[C@@]24OO3 [artemether]
bioavailability [2]: 19-35%
